From patent publication US20240067645A1, “HETEROCYCLIC COMPOUND AS DIACYLGLYCEROL KINASE INHIBITOR AND USE THEREOF” (LG CHEM, LTD., priority 2020, published 2024) come the findings set out here.

As a reminder, the IC50 is the point on the concentration scale where inhibition reaches its midpoint.

The first test deals with DGKα (Homo sapiens (Human), UniProt P23743). As to the kind of experiment: Measurement of inhibitory effect against DGKα enzyme (ADP-Glo).
Sequence of DGKα (P23743 whole entry, species assumed): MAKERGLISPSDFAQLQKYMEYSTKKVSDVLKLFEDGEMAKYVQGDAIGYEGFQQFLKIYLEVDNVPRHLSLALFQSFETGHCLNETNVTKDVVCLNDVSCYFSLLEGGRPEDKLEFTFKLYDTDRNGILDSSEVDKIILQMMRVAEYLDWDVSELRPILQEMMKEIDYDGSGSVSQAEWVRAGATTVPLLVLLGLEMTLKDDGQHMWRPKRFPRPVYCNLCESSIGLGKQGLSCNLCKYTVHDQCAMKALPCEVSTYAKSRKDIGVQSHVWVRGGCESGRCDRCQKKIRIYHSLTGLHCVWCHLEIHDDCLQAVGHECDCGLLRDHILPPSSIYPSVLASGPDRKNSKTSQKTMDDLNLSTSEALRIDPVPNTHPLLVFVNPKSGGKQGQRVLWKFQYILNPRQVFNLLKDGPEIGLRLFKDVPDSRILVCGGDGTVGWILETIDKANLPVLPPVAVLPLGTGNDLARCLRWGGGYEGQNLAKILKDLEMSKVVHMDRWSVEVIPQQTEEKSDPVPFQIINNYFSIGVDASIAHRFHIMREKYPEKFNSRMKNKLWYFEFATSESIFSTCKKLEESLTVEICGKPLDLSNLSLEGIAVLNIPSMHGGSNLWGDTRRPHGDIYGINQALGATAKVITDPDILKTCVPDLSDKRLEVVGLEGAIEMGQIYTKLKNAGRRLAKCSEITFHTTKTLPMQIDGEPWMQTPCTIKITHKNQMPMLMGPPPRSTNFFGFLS
Settings: not given
It counts as biochemical. The protocol: Experimental Example: Measurement of Inhibitory Effect Against DGKα Enzyme
First, 3×OAG (3 mM)/ATP (0.45 mM) substrate solution was prepared from 1× substrate assay buffer (40 mM MOPS (pH 7.2), 20 mM MgCl2, 1 mM DTT, 0.4 mM CaCl2), 3 mM sodium deoxycholate, 100 mM NaCl, 0.1 mg/mL BSA, 0.12% NP-40), and vortexed thoroughly for 3 minutes to induce detergent-lipid micelle formation. Then, 3×DGKα (7.5 nM) enzyme solution was prepared from 2× enzyme assay buffer (80 mM MOPS (pH 7.2), 2 mM DTT, 200 mM NaCl, 0.2 mg/mL BSA) and vortexed for a short time.
After preparing the above two solutions, a half-area opaque 96-well assay plate was prepared, and 10 μL of 3× diluted compound solution (30 μM to 0 μM) was transferred to each well. Next, 10 μL of 3×DGK enzyme solution was transferred to the same plate, mixed by pipetting, and then 10 μL of 3×OAG/ATP substrate solution was added to the assay plate and mixed well. The plate was incubated at room temperature for 20 minutes for the enzyme reaction. Next, 15 μL of ADP-Glo reagent was added to each well and mixed by pipetting, followed by incubating the plate at room temperature for 40 minutes to deplete the remaining ATPs. After this step, 30 μL of kinase detection reagent was added and mixed, and the plate was incubated at room temperature for an additional 20 minutes and luminescence was measured by Envision to calculate the IC50 value of each compound.
The measurement results are represented in Table 1 (+: IC50>5 μM, ++: 5 μM>IC50>300 nM, +++: IC50<300 nM).
For orientation: ADP-Glo turns the ADP formed in a reaction into a luminescent signal.
On to `Cn1c(=O)c(=O)n([C@H]2C[C@H]3CC[C@@H](C2)N3Cc2ccc(OC(F)(F)F)cc2)c2ncc(Cl)cc21` [Example 57, 7-chloro-1-methyl-4-((1R,3r,5S)-8-(4-(trifluoromethoxy)benzyl)-8-azabicyclo[3.2.1]octan-3-yl)-1,4-dihydropyrido[2,3-b]pyrazine-2,3-dione], for which the IC50 lay in the range of 300 to 5000 nM.

The test is the same for the next values; noted with them: DGKα enzyme, ADP-Glo luminescence, OAG/ATP substrate, 20 min room temperature; read-out: IC50.
Turning to `Cn1c(=O)c(=O)n(C2CCN(Cc3cccc(C(F)(F)F)c3)CC2)c2ncc(Cl)cc21` [Example 30, 7-chloro-1-methyl-4-(1-(3-(trifluoromethyl)benzyl)piperidin-4-yl)-1,4-dihydropyrido[2,3-b]pyrazine-2,3-dione], the IC50 is less than 300 nM.

Regarding `CNC(=O)c1cnc2c(c1)n(C)c(=O)c(=O)n2C1CCN(Cc2ccc(OC(F)(F)F)cc2)CC1` [Example 65, N,1-dimethyl-2,3-dioxo-4-(1-(4-(trifluoromethoxy)benzyl)piperidin-4-yl)-1,2,3,4-tetrahydropyrido[2,3-b]pyrazine-7-carboxamide], the concentration for half-maximal inhibition (IC50) is 300 to 5000 nM.

For `Cc1nc2c(cc1Cl)n(C)c(=O)c(=O)n2C1CCN(Cc2ccc(OC(F)(F)F)cc2)CC1` [Example 50, 7-chloro-1,6-dimethyl-4-(1-(4-(trifluoromethoxy)benzyl)piperidin-4-yl)-1,4-dihydropyrido[2,3-b]pyrazine-2,3-dione], the IC50 is less than 300 nM.

For `Cn1c(=O)c(=O)n([C@H]2C[C@H]3CC[C@@H](C2)N3Cc2ccc(OC(F)(F)F)cc2)c2ncc(Cl)cc21` [Example 32, 7-chloro-1-methyl-4-((1R,3s,5S)-8-(4-(trifluoromethoxy)benzyl)-8-azabicyclo[3.2.1]octan-3-yl)-1,4-dihydropyrido[2,3-b]pyrazine-2,3-dione], the IC50 is less than 300 nM.

Consider `Cn1c(=O)c(=O)n(C2CCN(Cc3ccc(OC(F)(F)F)cc3)CC2)c2ncc(-c3ccccc3F)cc21` [Example 39, 7-(2-fluorophenyl)-1-methyl-4-(1-(4-(trifluoromethoxy)benzyl)piperidin-4-yl)-1,4-dihydropyrido[2,3-b]pyrazine-2,3-dione], for which the IC50 is less than 300 nM.

`CCn1c(=O)c(=O)n(C2CCN(Cc3ccc(OC(F)(F)F)cc3)CC2)c2ncccc21` [Example 3, ethyl-4-(1-(4-(trifluoromethoxy)benzyl)piperidin-4-yl)-1,4-dihydropyrido[2,3-b]pyrazine-2,3-dione]: the half-maximal inhibitory concentration (IC50) lay within 300 to 5000 nM.

Turning to `Cc1ccc2c(n1)n(C1CCN(Cc3cccc(Oc4ccccc4)c3)CC1)c(=O)c(=O)n2C` [Example 21, 1,6-dimethyl-4-(1-(3-phenoxybenzyl)piperidin-4-yl)-1,4-dihydropyrido[2,3-b]pyrazine-2,3-dione], the half-inhibitory concentration (IC50) was in the range of 300 to 5000 nM.

Regarding `Cn1c(=O)c(=O)n(C2CCN(Cc3cccc4nccnc34)CC2)c2ncc(Cl)cc21` [Example 33, 7-chloro-1-methyl-4-(1-(quinoxalin-5-ylmethyl)piperidin-4-yl)-1,4-dihydropyrido[2,3-b]pyrazine-2,3-dione], the IC50 was 300 to 5000 nM.

For `Cn1c(=O)c(=O)n(C2CCN(Cc3cccc4ccccc34)CC2)c2ncc(Cl)cc21` [Example 29, 7-chloro-1-methyl-4-(1-(naphthalen-1-ylmethyl)piperidin-4-yl)-1,4-dihydropyrido[2,3-b]pyrazine-2,3-dione], the IC50 was less than 300 nM.

Take `Cn1c(=O)c(=O)n(C2CCN(Cc3ccc(OC(F)(F)F)cc3)CC2)c2ncc(C(=O)O)cc21` [Example 62, 1-methyl-2,3-dioxo-4-(1-(4-(trifluoromethoxy)benzyl)piperidin-4-yl)-1,2,3,4-tetrahydropyrido[2,3-b]pyrazine-7-carboxylic acid]: the half-inhibitory concentration (IC50) fell in the range of 300 to 5000 nM.

As to `Cc1ccc2c(n1)n(C1CCN(Cc3c(C)n(C)c4ccccc34)CC1)c(=O)c(=O)n2C` [Example 7, 4-(1-((1,2-dimethyl-1H-indol-3-yl)methyl)piperidin-4-yl)-1,6-dimethyl-1,4-dihydropyrido[2,3-b]pyrazine-2,3-dione], the IC50 is greater than 5000 nM.

On to `C[C@@H]1CC(n2c(=O)c(=O)n(C)c3cc(Cl)cnc32)[C@@H](C)CN1Cc1ccc(OC(F)(F)F)cc1` (stereo partly shown) [Example 49], for which the IC50 fell in the range of 300 to 5000 nM.

For the compound `Cn1c(=O)c(=O)n(C2CCN(Cc3ccc(OC(F)(F)F)cc3)CC2)c2ncc(Cl)cc21` [Example 28, 7-chloro-1-methyl-4-(1-(4-(trifluoromethoxy)benzyl)piperidin-4-yl)-1,4-dihydropyrido[2,3-b]pyrazine-2,3-dione], the IC50 is less than 300 nM.

As to `Cn1c(=O)c(=O)n(C2CCN(Cc3ccc(OC(F)(F)F)cc3)CC2)c2nc(C#N)c(C3CC3)cc21` [Example 44, 7-cyclopropyl-1-methyl-2,3-dioxo-4-(1-(4-(trifluoromethoxy)benzyl)piperidin-4-yl)-1,2,3,4-tetrahydropyrido[2,3-b]pyrazine-6-carbonitrile], the IC50 lay within 300 to 5000 nM.

Turning to `CC(C)Cn1c(=O)c(=O)n(C2CCN(Cc3ccc(OC(F)(F)F)cc3)CC2)c2ncccc21` [Example 4, isobutyl-4-(1-(4-(trifluoromethoxy)benzyl)piperidin-4-yl)-1,4-dihydropyrido[2,3-b]pyrazine-2,3-dione], the IC50 is greater than 5000 nM.

Take `Cn1c(=O)c(=O)n(C2CCN(Cc3ccc(OC(F)(F)F)cc3)CC2)c2ncc(C#N)cc21` [Example 47, 1-methyl-2,3-dioxo-4-(1-(4-(trifluoromethoxy)benzyl)piperidin-4-yl)-1,2,3,4-tetrahydropyrido[2,3-b]pyrazine-7-carbonitrile]: the IC50 fell in the range of 300 to 5000 nM.

In the case of `Cc1ccc2c(n1)n(C1CCN(Cc3ccccc3-c3ccccc3)CC1)c(=O)c(=O)n2C` [Example 10, 4-(1-([1,1′-biphenyl]-2-ylmethyl)piperidin-4-yl)-1,6-dimethyl-1,4-dihydropyrido[2,3-b]pyrazine-2,3-dione], the concentration for half-maximal inhibition (IC50) was 300 to 5000 nM.

Consider `CC(=O)c1ccc2c(n1)n(C1CCN(Cc3ccc(OC(F)(F)F)cc3)CC1)c(=O)c(=O)n2C` [Example 53, 6-acetyl-1-methyl-4-(1-(4-(trifluoromethoxy)benzyl)piperidin-4-yl)-1,4-dihydropyrido[2,3-b]pyrazine-2,3-dione], for which the IC50 is 300 to 5000 nM.

`Cn1c(=O)c(=O)n(C2CCN(Cc3cccc4c3CCCC4)CC2)c2ncc(Cl)cc21` [Example 37, 7-chloro-1-methyl-4-(1-((5,6,7,8-tetrahydronaphthalen-1-yl)methyl)piperidin-4-yl)-1,4-dihydropyrido[2,3-b]pyrazine-2,3-dione]: the IC50 is less than 300 nM.

As for `Cn1c(=O)c(=O)n(C2CCN(Cc3ccc(OC(F)(F)F)cc3)CC2)c2nc(Cl)ccc21` [Example 54, 6-chloro-1-methyl-4-(1-(4-(trifluoromethoxy)benzyl)piperidin-4-yl)-1,4-dihydropyrido[2,3-b]pyrazine-2,3-dione], the IC50 is less than 300 nM.

Take `Cn1c(=O)c(=O)n(C2CCN(Cc3cccc(Cl)c3)CC2)c2ncccc21` [Example 22, 4-(1-(3-chlorobenzyl)piperidin-4-yl)-1-methyl-1,4-dihydropyrido[2,3-b]pyrazine-2,3-dione]: the IC50 is less than 300 nM.

Take `CC(C)n1cc(CN2CCC(n3c(=O)c(=O)n(C)c4cc(Cl)cnc43)CC2)cn1` [Example 52, 7-chloro-4-(1-((1-isopropyl-1H-pyrazol-4-yl)methyl)piperidin-4-yl)-1-methyl-1,4-dihydropyrido[2,3-b]pyrazine-2,3-dione]: the IC50 was greater than 5000 nM.

Take `Cc1ccc2c(n1)n(C1CCN(Cc3ccc4c(ccn4C)c3)CC1)c(=O)c(=O)n2C` [Example 8, 1,6-dimethyl-4-(1-((1-methyl-1H-indol-5-yl)methyl)piperidin-4-yl)-1,4-dihydropyrido[2,3-b]pyrazine-2,3-dione]: the IC50 lay within 300 to 5000 nM.

On to `COc1ccc2c(n1)n(C1CCN(Cc3ccc(OC(F)(F)F)cc3)CC1)c(=O)c(=O)n2C` [Example 55, 6-methoxy-1-methyl-4-(1-(4-(trifluoromethoxy)benzyl)piperidin-4-yl)-1,4-dihydropyrido[2,3-b]pyrazine-2,3-dione], for which the IC50 is 300 to 5000 nM.

Consider `Cc1ccc2c(n1)n(C1CCN(Cc3ccc(Oc4ccccc4)cc3)CC1)c(=O)c(=O)n2C` [Example 18, 1,6-dimethyl-4-(1-(4-phenoxybenzyl)piperidin-4-yl)-1,4-dihydropyrido[2,3-b]pyrazine-2,3-dione], for which the 50% inhibitory concentration (IC50) was less than 300 nM.

Take `Cc1nc2c(cc1Br)n(C)c(=O)c(=O)n2C1CCN(Cc2ccc(OC(F)(F)F)cc2)CC1` [Example 51, 7-bromo-1,6-dimethyl-4-(1-(4-(trifluoromethoxy)benzyl)piperidin-4-yl)-1,4-dihydropyrido[2,3-b]pyrazine-2,3-dione]: the IC50 is less than 300 nM.

Turning to `CN(C)CCNC(=O)c1cnc2c(c1)n(C)c(=O)c(=O)n2C1CCN(Cc2ccc(OC(F)(F)F)cc2)CC1` [Example 63, N-(2-(dimethylamino)ethyl)-1-methyl-2,3-dioxo-4-(1-(4-(trifluoromethoxy)benzyl)piperidin-4-yl)-1,2,3,4-tetrahydropyrido[2,3-b]pyrazine-7-carboxamide], the IC50 was greater than 5000 nM.
